Experimental data: patent publication US9446027B2, “Use of pidotimod to treat irritable bowel syndrome” (POLICHEM SA, priority 2013, dated 2016)
Square brackets hold non-standard residues; d marks the D form. Peptide text beside a SMILES is read from it. pGlu = O=C1CC[C@@H](C(=O)O)N1; Thz = O=C(O)[C@@H]1CSCN1

Tested on: irritable bowel syndrome
Test: Open label pilot trial in patients with IBS: overall and extracolonic IBS scores
Type: in vivo, human
Conditions: nine IBS patients, oral solution of Example 4 twice a day, after 12 weeks
Text: Nine patients with IBS aged 25 to 60 years (5 female) were enrolled in an open label pilot trial to receive twice a day the composition as per the Example 4. IBS was diagnosed according to Rome II criteria for the diagnosis of IBS (Rasquin-Weber A: Childhood functional gastrointestinal disorders, Gut 1999;45 (Suppl II): II60-II68). Rome II Criteria for the Diagnosis of IBS: at least 12 weeks, which need not be consecutive, in the preceding 12 months of abdominal discomfort or pain that has at least two of the following three features: • 1. Relieved by defecation. • 2. Onset associated with changes in stool frequency. • 3. Onset associated with changes in stool form.
The overall IBS scores (IBS Symptoms, Pain severity, Pain frequency, Bloating, Bowel habit dissatisfaction, Life interference) and extracolonic IBS scores were assessed at 4, 8, and 12 weeks during treatment.

O=C1CC[C@@H](C(=O)N2CSC[C@H]2C(=O)O)N1 [Pidotimod, (4R)-3-(5-oxo-L-prolyl)-1,3-thiazolidine-4-carboxylic acid] ([pGlu]-[Thz]-OH)
post-treatment overall extracolonic IBS score (baseline 240, P<0.001): 90 | overall IBS score (IBS Symptoms, Pain severity, Pain frequency, Bloating, Bowel habit dissatisfaction, Life interference) (baseline 315, P<0.05): 175
